Tests used:
[1] = system: mpo:GFP zebrafish embryos (neutrophil migration to the wound site); assay: mpo:GFP zebrafish fin-clip neutrophil migration (inflammation) assay; type: in vivo; parameters: mpo:GFP inflammation n (survived/tested): concentration or dose not given beside the values; details: for minimal effective concentration: Danio rerio, Neutrophil, lowest concentration producing an effect, compounds not producing an effect shown at the highest evaluated concentration; for mpo:GFP inflammation n (survived/tested): embryos survived/tested at the concentration given
Procedure, shortened: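 Tg(mpo::EGFP) larvae tail-fin clipped (dorsal third removed) at 72 hpf, then immersed in compound or vehicle. Neutrophils migrating to the wound site counted from images 24 h later; at least 50% reduction scored as anti-inflammatory. Viability and morphology also assessed.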

[2] = system: fli1:EGFP zebrafish embryos (intersegmental vessel growth); assay: fli1:EGFP zebrafish embryo angiogenesis assay; type: in vivo; parameters: fli1:EGFP angiogenesis n (survived/tested): concentration or dose not given beside the values; details: for minimal effective concentration: Danio rerio, lowest concentration producing an effect, compounds not producing an effect shown at the highest evaluated concentration; for fli1:EGFP angiogenesis n (survived/tested): embryos alive after 24 hours of exposure
Procedure, shortened: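 fli1:EGFP embryos grown 24 hpf, dechorionated and exposed to compound or vehicle over a range of concentrations for up to 24 h, with CPS49 as positive control. Imaged at 48 hpf for intersegmental vessel formation and growth; survival after 24 h exposure recorded, and values reflect the lowest concentration producing an effect.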

| Compound | minimal effective concentration [1] [µg/mL] | mpo:GFP inflammation n (survived/tested) [1] | minimal effective concentration [2] [µg/mL] | fli1:EGFP angiogenesis n (survived/tested) [2] |
| --- | --- | --- | --- | --- |
| O=C1CCC(N2C(=O)c3cccc([N+](=O)[O-])c3C2=O)C(=O)N1 (stereo not drawn) [Compound 5] | 10 | 28/28 | 7.5 | 8/14 |
| O=C1NC(=S)CCC1N1C(=O)c2cccc([N+](=O)[O-])c2C1=O (stereo not drawn) [Compound 7, 2-(2-Oxo-6-thioxo-3-piperidinyl)-4-nitro-1H-isoindole-1,3(2H)-dione] | 10 | 29/29 | 10 | 28/33 |
| Nc1cccc2c1CN(C1CCC(=O)NC1=O)C2=S (stereo not drawn) [Compound 29] | 5 | 2/10 | 10 | 6/17 |
| Nc1cccc2c1CN(C13CC4CC(CC(C4)C1)C3)C2=O [Compound 77, 2,3-Dihydro-4-amino-2-(tricyclo[3.3.1.1^3,7]dec-1-yl)-1H-isoindol-1-one] | 200 | 5/21 | 10 | 43/62 |
| CC(N1Cc2c(N)cccc2C1=O)C12CC3CC(CC(C3)C1)C2 (stereo not drawn) [Compound 81] | 50 | 9/21 | 50 | 7/8 |
| O=C1c2ccccc2CN1C12CC3CC(CC(O)(C3)C1)C2 [Compound 86, 2,3-Dihydro-2-(tricyclo[3.3.1.1^3,7]dec-1-hydroxy-3-yl)-1H-isoindol-1-one] | 100 | 14/19 | 200 | 4/12 |
